Reference: PubChem BioAssay (NCI)
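Exposure lasted 48 hours, with cells grown in 96-well plates and compounds tested at five concentrations. The concentration for 50% growth inhibition is given as GI50. TGI marks complete inhibition of growth.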

How the values were obtained:
Assay in all cases: DTP human tumour cell line panel, 48 h
SK-MEL-5 melanoma = test system: SK-MEL-5 melanoma
MDA-MB-231 breast = test system: MDA-MB-231 breast
HCT-15 colon = test system: HCT-15 colon
M14 melanoma = test system: M14 melanoma
T-47D breast = test system: T-47D breast
HOP-62 NSCLC = test system: HOP-62 NSCLC
CAKI-1 renal = test system: CAKI-1 renal
SN12C renal = test system: SN12C renal
EKVX NSCLC = test system: EKVX NSCLC
SNB-75 CNS = test system: SNB-75 CNS
NCI-H522 lung = test system: NCI-H522 lung
CCRF-CEM leukemia = test system: CCRF-CEM leukemia
NCI/ADR-RES ovarian = test system: NCI/ADR-RES ovarian
NCI-H226 lung = test system: NCI-H226 lung
DU-145 prostate = test system: DU-145 prostate
SR leukemia = test system: SR leukemia
ACHN renal = test system: ACHN renal
NCI-H460 lung = test system: NCI-H460 lung
OVCAR-4 ovarian = test system: OVCAR-4 ovarian
SK-OV-3 ovarian = test system: SK-OV-3 ovarian
KM12 colon = test system: KM12 colon
A549 NSCLC = test system: A549 NSCLC
HOP-92 NSCLC = test system: HOP-92 NSCLC
TK-10 renal = test system: TK-10 renal
OVCAR-5 ovarian = test system: OVCAR-5 ovarian
MDA-MB-435 = test system: MDA-MB-435
HS 578T breast = test system: HS 578T breast
SF-539 CNS = test system: SF-539 CNS
PC-3 prostate = test system: PC-3 prostate
LOX IMVI melanoma = test system: LOX IMVI melanoma
SF-268 CNS = test system: SF-268 CNS
SK-MEL-2 melanoma = test system: SK-MEL-2 melanoma
786-0 renal = test system: 786-0 renal
UACC-62 melanoma = test system: UACC-62 melanoma
HL-60(TB) leukemia = test system: HL-60(TB) leukemia
SF-295 CNS = test system: SF-295 CNS
HCC-2998 colon = test system: HCC-2998 colon
BT-549 breast = test system: BT-549 breast
U251 CNS = test system: U251 CNS
RXF 393 renal = test system: RXF 393 renal
K-562 leukemia = test system: K-562 leukemia
NCI-H23 lung = test system: NCI-H23 lung
SW-620 colon = test system: SW-620 colon
MCF7 breast = test system: MCF7 breast
UO-31 renal = test system: UO-31 renal
OVCAR-8 ovarian = test system: OVCAR-8 ovarian
IGROV1 ovarian = test system: IGROV1 ovarian
COLO 205 colon = test system: COLO 205 colon
RPMI-8226 leukemia = test system: RPMI-8226 leukemia
HCT-116 colon = test system: HCT-116 colon
MALME-3M melanoma = test system: MALME-3M melanoma
SNB-19 CNS = test system: SNB-19 CNS
SK-MEL-28 melanoma = test system: SK-MEL-28 melanoma
OVCAR-3 ovarian = test system: OVCAR-3 ovarian
MOLT-4 leukemia = test system: MOLT-4 leukemia
A498 renal = test system: A498 renal

What does the source list for `COc1ccc([C@H]2C(=O)N(c3cc(OC)c(OC)c(OC)c3)[C@@H]2c2ccc(OC)c(O)c2)cc1`?
GI50 (SK-MEL-5 melanoma): 20.2 nM; TGI (SK-MEL-5 melanoma): 42.9 nM; GI50 (MDA-MB-231 breast): 31.8 nM; TGI (MDA-MB-231 breast): > 100000 nM; GI50 (HCT-15 colon): 30.5 nM; TGI (HCT-15 colon): > 100000 nM; GI50 (M14 melanoma): 34.1 nM; TGI (M14 melanoma): 17500 nM; GI50 (T-47D breast): 27300 nM; TGI (T-47D breast): > 100000 nM; GI50 (HOP-62 NSCLC): 56.2 nM; TGI (HOP-62 NSCLC): > 100000 nM; GI50 (CAKI-1 renal): 49 nM; TGI (CAKI-1 renal): > 100000 nM; GI50 (SN12C renal): 43.5 nM; TGI (SN12C renal): > 100000 nM; GI50 (EKVX NSCLC): 40.1 nM; TGI (EKVX NSCLC): > 100000 nM; GI50 (SNB-75 CNS): 861 nM; TGI (SNB-75 CNS): > 100000 nM; GI50 (NCI-H522 lung): 12.4 nM; TGI (NCI-H522 lung): 49.1 nM; GI50 (CCRF-CEM leukemia): 30.8 nM; TGI (CCRF-CEM leukemia): > 100000 nM; GI50 (NCI/ADR-RES ovarian): 19.5 nM; TGI (NCI/ADR-RES ovarian): 51.3 nM; GI50 (NCI-H226 lung): 27.4 nM; TGI (NCI-H226 lung): 89.8 nM; GI50 (DU-145 prostate): 52.7 nM; TGI (DU-145 prostate): > 100000 nM; GI50 (SR leukemia): 25.8 nM; TGI (SR leukemia): > 100000 nM; GI50 (ACHN renal): 53.5 nM; TGI (ACHN renal): 69900 nM; GI50 (NCI-H460 lung): 36.5 nM; TGI (NCI-H460 lung): 24800 nM; GI50 (OVCAR-4 ovarian): 17100 nM; TGI (OVCAR-4 ovarian): > 100000 nM; GI50 (SK-OV-3 ovarian): 42.2 nM; TGI (SK-OV-3 ovarian): > 100000 nM; GI50 (KM12 colon): 44.5 nM; TGI (KM12 colon): > 100000 nM; GI50 (A549 NSCLC): 40.1 nM; TGI (A549 NSCLC): > 100000 nM; GI50 (HOP-92 NSCLC): 1190 nM; TGI (HOP-92 NSCLC): 78300 nM; GI50 (TK-10 renal): 16200 nM; TGI (TK-10 renal): > 100000 nM; GI50 (OVCAR-5 ovarian): 45.9 nM; TGI (OVCAR-5 ovarian): > 100000 nM; GI50 (MDA-MB-435): 29.7 nM; TGI (MDA-MB-435): 1850 nM; GI50 (HS 578T breast): 42.2 nM; TGI (HS 578T breast): > 100000 nM; GI50 (SF-539 CNS): 20.4 nM; TGI (SF-539 CNS): 53.7 nM; GI50 (PC-3 prostate): 50 nM; TGI (PC-3 prostate): > 100000 nM; GI50 (LOX IMVI melanoma): 26.1 nM; TGI (LOX IMVI melanoma): 82100 nM; GI50 (SF-268 CNS): 1410 nM; TGI (SF-268 CNS): > 100000 nM; GI50 (SK-MEL-2 melanoma): 50.2 nM; TGI (SK-MEL-2 melanoma): > 100000 nM; GI50 (786-0 renal): 32.4 nM; TGI (786-0 renal): > 100000 nM; GI50 (UACC-62 melanoma): 44.8 nM; TGI (UACC-62 melanoma): 26700 nM; GI50 (HL-60(TB) leukemia): 21.6 nM; TGI (HL-60(TB) leukemia): 52.7 nM; GI50 (SF-295 CNS): 29.8 nM; TGI (SF-295 CNS): 22700 nM; GI50 (HCC-2998 colon): 36.1 nM; TGI (HCC-2998 colon): 15500 nM; GI50 (BT-549 breast): 58 nM; TGI (BT-549 breast): 3830 nM; GI50 (U251 CNS): 32.2 nM; TGI (U251 CNS): > 100000 nM; GI50 (RXF 393 renal): 46.7 nM; TGI (RXF 393 renal): 41200 nM; GI50 (K-562 leukemia): 27.6 nM; TGI (K-562 leukemia): > 100000 nM; GI50 (NCI-H23 lung): 37.8 nM; TGI (NCI-H23 lung): 72200 nM; GI50 (SW-620 colon): 51.6 nM; TGI (SW-620 colon): > 100000 nM; GI50 (MCF7 breast): 32.7 nM; TGI (MCF7 breast): > 100000 nM; GI50 (UO-31 renal): 72 nM; TGI (UO-31 renal): 38200 nM; GI50 (OVCAR-8 ovarian): 29.9 nM; TGI (OVCAR-8 ovarian): > 100000 nM; GI50 (IGROV1 ovarian): 42.4 nM; TGI (IGROV1 ovarian): > 100000 nM; GI50 (COLO 205 colon): 30.3 nM; TGI (COLO 205 colon): 83 nM; GI50 (RPMI-8226 leukemia): 38.7 nM; TGI (RPMI-8226 leukemia): 17300 nM; GI50 (HCT-116 colon): 29.2 nM; TGI (HCT-116 colon): > 100000 nM; GI50 (MALME-3M melanoma): 35.7 nM; TGI (MALME-3M melanoma): 34500 nM; GI50 (SNB-19 CNS): 45.4 nM; TGI (SNB-19 CNS): > 100000 nM; GI50 (SK-MEL-28 melanoma): 4030 nM; TGI (SK-MEL-28 melanoma): > 100000 nM; GI50 (OVCAR-3 ovarian): 63.5 nM; TGI (OVCAR-3 ovarian): > 100000 nM; GI50 (MOLT-4 leukemia): 46.4 nM; TGI (MOLT-4 leukemia): > 100000 nM; GI50 (A498 renal): 33600 nM; TGI (A498 renal): > 100000 nM
